This note sets out measurements from patent publication US8609836B2, “4-aryl-2-anilino-pyrimidines” (Janssen Pharmaceutica NV, priority 2008, dated 2013).

The target in one test is AuroraB (h) (Homo sapiens, UniProt Q96GD4). Description: Aurora-B human kinase inhibition, SPA. In kind it is biochemical. The conditions noted are these: read-out: AuroraB pIC50 (converted). In outline:
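SPA with biotinylated peptide (3 μM) in 60 mM Hepes pH 7.5, Mg/Mn 3 mM each, 0.5 μM ATP plus [γ-33P]ATP, AuroraB at 0.5 μg/ml. The reaction runs 60 min at room temperature and is stopped with EDTA and streptavidin PVT beads. 33P-substrate is read by scintillation imaging.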

The next test concerns the target PLK3 (h) (Homo sapiens, UniProt Q9H4B4). Description: PLK3 human kinase inhibition, SPA. In kind it is biochemical. The following applies: read-out: PLK3 pIC50 (converted). A digest of the protocol:
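SPA: PLK3 (h) at 30 μg/ml with 2 μM biotinylated peptide, 0.1 μM ATP plus 2 nM [γ-33P]ATP in 50 mM Hepes pH 8.0, 2 mM MnCl2 and 1 mM DTT. Incubated 20 min at room temperature, then stopped with EDTA and streptavidin PVT beads. Scintillation imaged on Leadseeker.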

In a further test the test system is U87-MG. Description: Cellular proliferation assay (Alamar blue), U87-MG. It counts as cell-based. The following applies: Homo sapiens, U-87 MG; 10% FCS; 72 hours with compound; Alamar blue 6 h; read-out: U87-MG (cellular proliferation assay, Table 4) (converted). In outline:
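Cells seeded 24 h without compound, then exposed to compounds for 72 h in 10% FCS at 37 °C, 5% CO2. Viability read by Alamar blue (resazurin 9 μg/ml) fluorescence at 544/590 nm after 6 h (U87-MG) or 24 h (A2780, MDA-MB-231) or 4 h (HCT-116) dye incubation; effect expressed relative to control cells.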

Another test concerns the target PLK2 (h) (Homo sapiens, UniProt Q9NYY3). Description: PLK2 human kinase inhibition, SPA. In kind it is biochemical. The conditions noted are these: read-out: PLK2 pIC50 (converted). In outline: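 SPA read on Leadseeker: PLK2 (30 μg/ml) with 2 μM biotinylated peptide, 0.1 μM ATP plus 2 nM [γ-33P]ATP in 50 mM Hepes pH 8.0, 2 mM MnCl2, 1 mM DTT. Reaction ran 20 min at room temperature, then EDTA stop and streptavidin PVT beads.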

Sequence of PLK2 (h) (Q9NYY3 whole entry): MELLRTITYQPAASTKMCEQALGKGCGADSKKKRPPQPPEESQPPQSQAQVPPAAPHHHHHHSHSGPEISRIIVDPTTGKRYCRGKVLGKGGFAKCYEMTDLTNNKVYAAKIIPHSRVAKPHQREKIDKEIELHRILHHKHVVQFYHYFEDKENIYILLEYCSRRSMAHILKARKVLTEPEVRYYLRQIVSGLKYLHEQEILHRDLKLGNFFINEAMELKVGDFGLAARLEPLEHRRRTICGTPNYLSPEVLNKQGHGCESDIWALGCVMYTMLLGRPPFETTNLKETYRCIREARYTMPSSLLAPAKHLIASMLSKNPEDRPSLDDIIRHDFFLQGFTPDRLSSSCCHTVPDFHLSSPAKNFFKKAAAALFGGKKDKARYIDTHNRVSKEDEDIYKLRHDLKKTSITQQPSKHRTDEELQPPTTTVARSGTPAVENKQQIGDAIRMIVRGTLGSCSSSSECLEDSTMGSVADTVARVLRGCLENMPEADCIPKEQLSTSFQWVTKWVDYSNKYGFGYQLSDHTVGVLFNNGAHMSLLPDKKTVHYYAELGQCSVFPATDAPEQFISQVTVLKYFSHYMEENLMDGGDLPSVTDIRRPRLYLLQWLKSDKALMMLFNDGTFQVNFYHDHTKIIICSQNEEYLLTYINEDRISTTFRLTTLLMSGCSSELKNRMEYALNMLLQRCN
Sequence of PLK3 (h) (Q9H4B4 whole entry): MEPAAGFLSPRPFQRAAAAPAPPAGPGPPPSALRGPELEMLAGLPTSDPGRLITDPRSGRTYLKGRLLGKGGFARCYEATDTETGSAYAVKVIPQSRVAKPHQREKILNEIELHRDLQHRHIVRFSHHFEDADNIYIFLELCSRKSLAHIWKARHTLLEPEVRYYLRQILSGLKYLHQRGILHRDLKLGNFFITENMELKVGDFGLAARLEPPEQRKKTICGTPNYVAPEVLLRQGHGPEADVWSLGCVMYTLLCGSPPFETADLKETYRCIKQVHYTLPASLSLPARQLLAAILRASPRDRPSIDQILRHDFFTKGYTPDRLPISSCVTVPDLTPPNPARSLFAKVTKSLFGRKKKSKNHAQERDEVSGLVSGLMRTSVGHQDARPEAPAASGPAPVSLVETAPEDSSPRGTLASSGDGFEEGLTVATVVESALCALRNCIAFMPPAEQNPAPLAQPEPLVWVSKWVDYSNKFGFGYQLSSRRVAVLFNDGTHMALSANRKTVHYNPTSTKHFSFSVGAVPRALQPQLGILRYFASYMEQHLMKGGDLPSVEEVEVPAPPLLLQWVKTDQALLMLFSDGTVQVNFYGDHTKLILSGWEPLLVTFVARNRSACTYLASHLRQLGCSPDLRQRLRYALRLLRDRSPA
Sequence of AuroraB (h) (Q96GD4 whole entry): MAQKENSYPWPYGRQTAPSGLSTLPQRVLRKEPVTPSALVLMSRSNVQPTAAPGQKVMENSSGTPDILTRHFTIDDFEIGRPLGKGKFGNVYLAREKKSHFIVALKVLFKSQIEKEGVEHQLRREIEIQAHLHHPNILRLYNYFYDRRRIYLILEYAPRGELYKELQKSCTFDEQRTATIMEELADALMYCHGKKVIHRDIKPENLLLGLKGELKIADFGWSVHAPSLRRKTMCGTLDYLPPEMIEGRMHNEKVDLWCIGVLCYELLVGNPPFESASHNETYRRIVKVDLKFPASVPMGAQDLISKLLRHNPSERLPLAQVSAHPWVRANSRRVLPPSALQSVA

In the case of `COCCNC(=O)c1cc2cc(c1)Nc1nccc(n1)-c1cccc(c1)CNC(=O)[C@@H]1CCCN1C2` [Compound 44], the IC50 at AuroraB (h) is greater than 10 µM; on PLK3 (h), greater than 10 µM; with U87-MG, 1.91 µM; on PLK2 (h), greater than 10 µM.

In the case of `COc1cc2cc(c1OC)CN1CCC[C@H]1C(=O)N(C)CCN(C)c1cc(ccn1)-c1ccnc(n1)N2` [Compound 17], the IC50 on AuroraB (h), at PLK3 (h), in the test with U87-MG and at PLK2 (h) was greater than 10 µM in each case.

As for `O=C1NCCNCc2ccc(cc2)-c2ccnc(n2)Nc2ccc(N3CCOCC3)c(c2)CN2CCC[C@@H]12` [Compound 157], the IC50 was 9.55 µM on AuroraB (h), 9.55 µM on PLK3 (h), greater than 10 µM in the test with U87-MG and greater than 10 µM at PLK2 (h).

`O=C1CN2CCN(CC2)Cc2cc(ccc2N2CCOCC2)Nc2nccc(n2)-c2ccc(cc2)CN1` [Compound 194]: the IC50 at AuroraB (h), at PLK3 (h), with U87-MG and at PLK2 (h) was greater than 10 µM in each case.

On to `O=C1NCc2ccc(cc2)-c2ccnc(n2)Nc2ccc(N3CCOCC3)c(c2)CN2C[C@H](O)C[C@@H]12` [Compound 56], for which the IC50 at AuroraB (h), on PLK3 (h), in the test with U87-MG and at PLK2 (h) was greater than 10 µM in each case.

Consider `CC(C)Nc1cc2cc(c1)Nc1nccc(n1)-c1ccc(cc1)CN(C)CCCNC(=O)[C@@H]1CCCN1C2` [Compound 151], for which the IC50 was greater than 10 µM at AuroraB (h), greater than 10 µM on PLK3 (h), 7.59 µM in the test with U87-MG and greater than 3.02 µM on PLK2 (h).

For `CN1CCNC(=O)[C@@H]2CCCN2Cc2cccc(c2)Nc2nccc(n2)-c2ccc(cc2)C1` [Compound 160], the IC50 at AuroraB (h) was greater than 10 µM; on PLK3 (h) it was 9.33 µM; in the test with U87-MG, greater than 10 µM; at PLK2 (h), greater than 3.02 µM.

Turning to `O=C1NCc2cc(ccc2N2CCOCC2)Nc2nccc(n2)-c2cccc(c2)CCCN2CCC[C@@H]12` [Compound 149], the IC50 is 11 µM at AuroraB (h), greater than 10 µM on PLK3 (h), 0.251 µM with U87-MG and greater than 10 µM at PLK2 (h).

Consider `COc1ccc2cc1CN(C)CCNC(=O)[C@@H]1CCCN1Cc1cc(NCCc3ccccc3)cc(c1)Nc1nccc-2n1` [Compound 163], for which the IC50 on AuroraB (h) is greater than 10 µM; at PLK3 (h), greater than 10 µM; in the test on U87-MG, 6.92 µM; on PLK2 (h), greater than 10 µM.

On to `CC(C)Nc1cc2cc(c1)Nc1nccc(n1)-c1ccc(cc1)CN(C)CCCNC(=O)CN1CCN(CC1)C2` [Compound 131], for which the IC50 at AuroraB (h), at PLK3 (h), with U87-MG and on PLK2 (h) was greater than 10 µM each time.

As to `C[C@@H]1NCc2ccc(Cl)c(c2)Nc2nccc(n2)-c2cccc(c2)CNC1=O` [Compound 186], the IC50 at AuroraB (h), on PLK3 (h), in the test with U87-MG and on PLK2 (h) was greater than 10 µM in each case.

Consider `CN1CCN(C(=O)c2cc3cc(c2)Nc2nccc(n2)-c2cccc(c2)CNC(=O)[C@@H]2CCCN2C3)CC1` [Compound 34], for which the IC50 at AuroraB (h) was greater than 10 µM; at PLK3 (h), greater than 10 µM; with U87-MG, 8.71 µM; on PLK2 (h), greater than 10 µM.

Turning to `COc1cc2cc(c1)Nc1nccc(n1)-c1ccc(OC)c(c1)CN(C)CCNC(=O)[C@@H]1CCCN1C2` [Compound 162], the IC50 on AuroraB (h) is 6.61 µM; on PLK3 (h), greater than 10 µM; with U87-MG, greater than 10 µM; at PLK2 (h), greater than 3.02 µM.

As for `O=C1NCc2cccc(c2)-c2ccnc(n2)Nc2ccc(N3CCOCC3)c(c2)CN2C[C@@H](O)C[C@@H]12` [Compound 27], the IC50 at AuroraB (h) is greater than 10 µM; on PLK3 (h) it was greater than 10 µM; in the test with U87-MG it was 5.37 µM; at PLK2 (h) it was greater than 10 µM.
